Where two headings read alike, the source gives them in different places.
Columns and labels:
EP1 receptor (PTGER1) = target: T1, EP1 receptor (PTGER1) (Homo sapiens, UniProt P34995); experiment: PathHunter beta-arrestin cell-based prostanoid receptor assay, EP1; settings: β-Arrestin
T1 construct: host or cells: PathHunter beta-arrestin cell line
T1 sequence (P34995 1-402): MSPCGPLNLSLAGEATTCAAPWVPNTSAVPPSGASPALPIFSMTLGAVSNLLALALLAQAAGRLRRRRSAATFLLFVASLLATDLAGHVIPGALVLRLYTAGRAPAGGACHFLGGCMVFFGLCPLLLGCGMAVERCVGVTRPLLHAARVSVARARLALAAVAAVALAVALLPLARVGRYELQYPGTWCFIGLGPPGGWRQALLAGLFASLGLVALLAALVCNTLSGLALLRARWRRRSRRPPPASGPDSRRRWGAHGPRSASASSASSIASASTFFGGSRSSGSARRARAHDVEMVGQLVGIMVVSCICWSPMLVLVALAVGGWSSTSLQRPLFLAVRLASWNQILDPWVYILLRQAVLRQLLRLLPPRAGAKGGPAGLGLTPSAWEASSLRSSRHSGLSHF
Method: (§1) DiscoverX cell-based ligand binding assays were performed in the PathHunter beta-arrestin (EP1, EP2, EP3, EP4, FP, IP, and TP receptors) or cAMP Hunter™ (DP receptor) cell lines.
(§2) Receptor binding studies were performed in either the PathHunter® b-Arrestin (EP1, EP2, EP3, EP4, FP, IP, and TP receptors) or cAMP Hunter™ (DP receptor) cell lines. A 10 mM working stock of GP1681 was created in 1×PBS, pH 7.4. All assays were carried out in duplicate with 10 individual concentrations of GP1681. A three-fold dilution series of GP1681 was established for the initial or pilot experiment with a starting concentration of 4 uM (starting concentration was chosen based on previous Gemmus Pharma preclinical experimental results).
(§3) GP1681 was incubated with cells lines at either 37° C. or room temperature, for 90-180 minutes (temperatures and incubation times are all dependent on established optimized procedures for each receptor cell line) after which cell wells were processed and signal production detected. […] Vehicle only controls (PBS, pH 7.4) were also included for each receptor cell line. Receptor binding activity was analyzed using CBIS data analysis suite (ChemInnovation, CA). The percentage of activity was calculated using the following formula: % Activity=100%×(mean RLU of test sample−mean RLU of vehicle control)/(mean MAX control ligand−mean RLU of vehicle control). Dose curves were performed and EC50 values determined.
The four assays were repeated with a higher starting concentration.
The second experimental run of the receptor binding assay was performed with these last four cell lines including GP1681 and their respective positive and negative (vehicle, PBS pH 7.4) controls. A 10 mM GP1681 working stock was again created in 1×PBS, pH 7.4. A three-fold serial dilution scheme was again used for GP1681 samples, starting this time at a concentration of 500 μM. The remainder of the second experimental run was performed in the same manner as run 1.

TP receptor (TBAX2R) = target: T2, TP receptor (TBAX2R) (Homo sapiens, UniProt P21731); experiment: PathHunter beta-arrestin cell-based prostanoid receptor assay, TP
T2 construct: host or cells: PathHunter beta-arrestin cell line
T2 sequence (P21731 1-343): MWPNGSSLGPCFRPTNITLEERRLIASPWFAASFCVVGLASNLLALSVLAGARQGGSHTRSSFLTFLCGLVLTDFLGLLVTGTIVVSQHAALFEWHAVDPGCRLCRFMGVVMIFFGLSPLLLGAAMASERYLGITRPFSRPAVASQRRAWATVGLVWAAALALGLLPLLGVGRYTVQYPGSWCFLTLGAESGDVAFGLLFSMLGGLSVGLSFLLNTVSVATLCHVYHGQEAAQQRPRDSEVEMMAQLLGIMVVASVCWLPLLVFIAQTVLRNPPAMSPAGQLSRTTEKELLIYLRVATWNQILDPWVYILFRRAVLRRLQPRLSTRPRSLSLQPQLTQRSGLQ
Method: as §1, §2, §3

EP4 receptor (PTGER4) = target: T3, EP4 receptor (PTGER4) (Homo sapiens, UniProt P35408); experiment: PathHunter β-Arrestin PTGER4 (EP4) agonist assay, optimisation of cell density and temperature; assay type: cell-based; settings: for EC50: read-out: RC50 (μM) / EC50, agonist
T3 construct: expressed in transfected cells; host or cells: PathHunter β-Arrestin PTGER4 (EP4) cell line
T3 sequence (P35408 whole entry): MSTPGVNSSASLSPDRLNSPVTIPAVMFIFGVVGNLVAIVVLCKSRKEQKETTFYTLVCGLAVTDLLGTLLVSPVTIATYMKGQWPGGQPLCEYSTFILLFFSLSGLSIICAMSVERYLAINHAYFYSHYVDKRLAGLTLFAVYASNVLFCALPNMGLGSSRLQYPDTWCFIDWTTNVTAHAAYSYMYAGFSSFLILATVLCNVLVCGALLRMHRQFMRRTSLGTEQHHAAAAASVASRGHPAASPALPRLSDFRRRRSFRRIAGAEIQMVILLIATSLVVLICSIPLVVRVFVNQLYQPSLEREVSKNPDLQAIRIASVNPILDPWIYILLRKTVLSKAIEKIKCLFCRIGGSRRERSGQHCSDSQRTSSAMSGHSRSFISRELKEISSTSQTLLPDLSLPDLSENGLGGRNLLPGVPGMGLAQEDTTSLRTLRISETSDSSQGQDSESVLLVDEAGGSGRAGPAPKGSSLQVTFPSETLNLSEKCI
Method: This Example describes antagonist assay experiments performed with known EP4 receptor inhibitors. Agonist controls and antagonist binding studies were performed in the PathHunter® β-Arrestin PTGER4 (EP4) cell lines. The PathHunter® β-Arrestin assay monitors activation by bound ligands of a GPCR in a homogenous, non-imaging assay format using Enzyme Fragment Complementation (EFC) with β-galactosidase (β-Gal) as the functional reporter. A fresh 10 mM working stock of GP1681 was created in the vehicle (1×PBS, pH 7.4). Prior to setting up the GP1681-antagonist assays, the parameters of the GP1681 agonist assay were optimized for most efficient cellular activation and expression of the reporter molecule via GP1681 receptor (PTGER4) binding. Two different cell densities (5K vs 7.5K) and incubation temperatures (room temperature and 37 C) were evaluated in standard agonist format. […] Vehicle only controls (1×PBS, pH 7.4) were also included for each receptor cell line. Receptor binding activity was analyzed using CBIS data analysis suite (ChemInnovation Software, Inc., San Diego, CA, USA).
The percentage of activity was calculated using the following formula: % Activity=100%×(mean RLU of test sample−mean RLU of vehicle control)/(mean MAX control ligand−mean RLU of vehicle control). Dose curves were performed and EC50 values determined. In all rows, the assay was Arrestin, the assay target was PTGER4, and the result type was EC50 for all agonists, and IC50 for all antagonists. NI indicates no inhibition, N is number of replicates, K is cell density, and RT is room temperature.

IP receptor (PTGIR) = target: T4, IP receptor (PTGIR) (Homo sapiens, UniProt P43119); experiment: PathHunter beta-arrestin cell-based prostanoid receptor assay, IP; settings: Run 1, GP1681 starting concentration 4 uM; β-Arrestin; read-out: EC50
T4 construct: host or cells: PathHunter beta-arrestin cell line
T4 sequence (P43119 whole entry): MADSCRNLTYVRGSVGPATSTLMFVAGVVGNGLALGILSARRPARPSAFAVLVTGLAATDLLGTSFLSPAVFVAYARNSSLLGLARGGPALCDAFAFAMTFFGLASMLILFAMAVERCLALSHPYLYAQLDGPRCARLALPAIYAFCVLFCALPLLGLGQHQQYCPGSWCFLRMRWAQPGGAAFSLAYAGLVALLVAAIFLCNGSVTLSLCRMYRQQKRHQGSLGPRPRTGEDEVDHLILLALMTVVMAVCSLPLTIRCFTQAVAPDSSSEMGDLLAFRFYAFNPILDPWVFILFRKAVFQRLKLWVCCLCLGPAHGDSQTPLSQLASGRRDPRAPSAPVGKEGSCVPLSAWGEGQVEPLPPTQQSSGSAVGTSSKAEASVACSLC
Method: as §1, §2, §3

SMILES: CC#CCC(C)C(O)C=CC1C(O)CC2Oc3c(CCCC(=O)O)cccc3C21 (single isomer, unassigned) [GP1681, esuberaprost]
- EC50 (EP1 receptor (PTGER1); Run 1, GP1681 starting concentration 4 uM, curve for GP1681 not fully sigmoidal): 1.08 µM
- EC50 (EP1 receptor (PTGER1); Run 2, GP1681 starting concentration 500 μM): 7.81 µM
- binding to TP receptor, in words (TP receptor (TBAX2R)): does not bind
- EC50 (TP receptor (TBAX2R); Run 1, GP1681 starting concentration 4 uM, β-Arrestin): > 4 µM
- EC50 (EP4 receptor (PTGER4); 5K 37C, N not given): 11.9 µM
- EC50 (EP4 receptor (PTGER4); N = 1, 5K 37C): 23.4 µM
- EC50 (EP4 receptor (PTGER4); N = 1, 5K RT): 12.7 µM
- EC50 (EP4 receptor (PTGER4); N = 1, 7.5K 37C): 22 µM
- EC50 (EP4 receptor (PTGER4); N = 1, 7.5K RT): 14.8 µM
- EC50 (EP4 receptor (PTGER4); N = 2, 5K 37C): 16.2 µM
- EC50 (EP4 receptor (PTGER4); N = 2, 5K RT): 16.1 µM
- EC50 (EP4 receptor (PTGER4); N = 2, 7.5K 37C): 18 µM
- EC50 (EP4 receptor (PTGER4); N = 2, 7.5K RT): 11.1 µM
- EC80 concentration (EP4 receptor (PTGER4); from GP1681 binding curves, used in the antagonist assays): 45 µM
- EC50 (IP receptor (PTGIR)): 110 nM
